Consider 12 compounds from ChEMBL document CHEMBL1201862, “PubChem BioAssay data set” (2004).

Molecules are shown by their SMILES.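 Growth conditions: 96-well plates. Treatment: test compound, 48 hours, 5 concentrations. Analysis: linear interpolation between bracketing concentrations; unreached endpoints set to highest concentration. Abbreviation: GI50, concentration required for 50% inhibition of growth.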 Activity calls are given as the source filed them. Rule as the data show it: active = GI50 up to about 1.1 µM and inactive = higher.

Holding throughout (test): NCI anticancer screen, dose series, 48 h
Experiment [1] deals with CAKI-1.
Experiment [2] concerns COLO 205.
Experiment [3] deals with SW-620.
Experiment [4] relates to MOLT-4.
The subject of experiment [5] is SNB-19.
The subject of experiment [6] is KM12.
The test system of experiment [7] is SF-268.
Experiment [8] has as its system MCF7.
Experiment [9] concerns SN12C.
For experiment [10], the system named is 786-0.
For experiment [11], the system named is SNB-75.
Experiment [12] has as its system MDA-N.
Experiment [13] has as its system SF-295.
For experiment [14], the system named is IGROV-1.
For experiment [15], the system named is UACC-62.
Experiment [16] deals with SF-539.
Experiment [17] deals with LOX IMVI.
In experiment [18] the test system is RPMI-8226.
The test system of experiment [19] is HOP-92.

In the case of `CCCCS(=O)(=O)CCC(N)C(=O)O` (stereo unspecified), the GI50 in [1], in [2], in [3], in experiment [4], in [5] and in [6] was > 100 µM (inactive) in each case. The GI50 in [7], in experiment [8], in [9], in experiment [10], in experiment [11] and in experiment [12] was > 100 µM (inactive) in each case. In addition, the GI50 in experiment [13], in experiment [14], in [15] and in [16] was > 100 µM (inactive) throughout.

With `COP(=O)(CP(=O)(OC)OCCC(C)CCC=C(C)C)OC` (stereo unspecified), the GI50 in [1], in [2], in [3], in [4], in experiment [5] and in experiment [6] was > 100 µM (inactive) each time. Further, the GI50 in experiment [7], in experiment [8], in [9], in experiment [10], in experiment [17] and in experiment [11] was > 100 µM (inactive) in each case. Also, the GI50 in experiment [12], in experiment [13], in experiment [14] and in experiment [16] was > 100 µM (inactive) throughout.

Turning to `CC1=C(C)C(=O)C(C2=CC(=O)c3ccccc3C2=O)=C(C2=CC(=O)c3ccccc3C2=O)C1=O`, the GI50 in [1] is 2.95 µM (inactive); in experiment [2] it was 1.99 µM (inactive); in [3] it was 2.79 µM (inactive); in experiment [5], 4.54 µM (inactive); in [6], 10.4 µM (inactive); in experiment [7], 8.15 µM (inactive). The GI50 in experiment [8] is 1.88 µM (inactive); in experiment [9], 2.61 µM (inactive); in [10] it was 7.46 µM (inactive); in [17], 1.39 µM (inactive); in experiment [11] it was 13.2 µM (inactive); in [12] it was 0.82 µM (active). The GI50 was 12.3 µM (inactive) in [13], 7.31 µM (inactive) in experiment [14], 7.19 µM (inactive) in experiment [15] and 6.35 µM (inactive) in experiment [16].

On to `COc1cc(OC)nc(Nc2c(C#N)c3nc4ccccc4n3c3ccccc23)n1`, for which the GI50 in experiment [1] is 29.1 µM (inactive); in experiment [18], > 100 µM (inactive); in [2] it was > 100 µM (inactive); in experiment [3] it was > 100 µM (inactive); in experiment [4], > 100 µM (inactive); in experiment [5], 25.1 µM (inactive). For the same compound, the GI50 in experiment [6] is 45.9 µM (inactive); in [7], 29.9 µM (inactive); in [8], 22.2 µM (inactive); in experiment [10], 16.5 µM (inactive); in experiment [17], 21.4 µM (inactive); in experiment [11] it was 16.4 µM (inactive). For the same compound, the GI50 in experiment [12] is > 100 µM (inactive); in experiment [13], 21.6 µM (inactive); in experiment [14], 21.8 µM (inactive); in [15], 37.1 µM (inactive); in [16] it was 17.6 µM (inactive).

Turning to `CCC(C)C(NC(=O)C(CCCC[N+](=N)N)NC(=O)C(CCCC[N+](=N)N)NC(=O)c1ccc(OC)cc1)C(=O)NC(CCCC[N+](=N)N)C(=O)N1CCCC1C(=O)NC(CCCCN)C(=O)NC(CC(C)C)C(N)=O` (stereo unspecified), the GI50 in experiment [1], in experiment [18], in experiment [2], in experiment [3], in experiment [4] and in [5] was > 100 µM (inactive) throughout. In addition, the GI50 in experiment [6], in experiment [7], in experiment [8], in experiment [9], in [10] and in experiment [17] was > 100 µM (inactive) each time. In addition, the GI50 in experiment [11], in [12], in experiment [13], in [15] and in [16] was > 100 µM (inactive) throughout.

For `CC(N)Cc1ccc(F)cc1` (stereo unspecified), the GI50 in experiment [1], in [18], in experiment [2], in experiment [3], in experiment [4] and in experiment [5] was > 100 µM (inactive) throughout. Further, the GI50 in experiment [6], in [7], in experiment [9], in experiment [10], in experiment [17] and in experiment [19] was > 100 µM (inactive) each time. Further, the GI50 in experiment [11], in experiment [13], in experiment [14], in [15] and in [16] was > 100 µM (inactive) in each case.

As for `CCN(CC)c1ccc2nc3ccc(/N=N/c4c(O)ccc5ccccc45)cc3[n+](-c3ccccc3)c2c1`, the GI50 in experiment [1], in [18], in experiment [2], in experiment [3], in experiment [4] and in experiment [5] was > 100 µM (inactive) throughout. Besides, the GI50 in experiment [6], in experiment [7], in [9], in [10], in experiment [19] and in experiment [11] was > 100 µM (inactive) in each case. The GI50 in experiment [12], in [13], in [14] and in [15] was > 100 µM (inactive) throughout.

Consider `COc1ccc(-n2c(C)nc3ccc(/N=C/c4ccccc4)cc3c2=O)cc1`, for which the GI50 in [1] is > 100 µM (inactive); in experiment [18] it was 51.2 µM (inactive); in experiment [2], > 100 µM (inactive); in experiment [3] it was > 100 µM (inactive); in experiment [4], > 100 µM (inactive); in experiment [5], > 100 µM (inactive). Besides, the GI50 in experiment [6], in [7], in [8], in experiment [9], in [10] and in [17] was > 100 µM (inactive) each time. In addition, the GI50 in [11], in experiment [12], in experiment [13], in experiment [14] and in experiment [15] was > 100 µM (inactive) throughout.

Consider `CN(C)c1nc(Cl)c2c(-c3ccccc3)c(-c3ccccc3)oc2n1`, for which the GI50 was 23.2 µM (inactive) in [1]; 18.9 µM (inactive) in experiment [18]; > 100 µM (inactive) in experiment [2]; 93.5 µM (inactive) in experiment [3]; 32.2 µM (inactive) in [4]; > 100 µM (inactive) in [5]. The GI50 was > 100 µM (inactive) in [6]; 36 µM (inactive) in experiment [7]; 28.9 µM (inactive) in experiment [8]; 39.5 µM (inactive) in experiment [9]; 72.8 µM (inactive) in experiment [10]; 33.3 µM (inactive) in [17]. In addition, the GI50 was 81.5 µM (inactive) in experiment [19]; 35.8 µM (inactive) in experiment [11]; 58.1 µM (inactive) in experiment [13]; 80.7 µM (inactive) in experiment [14]; 95.5 µM (inactive) in [15]; 48 µM (inactive) in [16].

For `Oc1ccccc1/C=N/c1ccc(Oc2ccc(Cl)cc2)c(Cl)c1`, the GI50 in experiment [1] was 23.2 µM (inactive); in [18] it was 21.5 µM (inactive); in experiment [2] it was 21.8 µM (inactive); in experiment [3], 28.9 µM (inactive); in experiment [4] it was 30.1 µM (inactive); in experiment [5] it was 17.4 µM (inactive). The GI50 in [6] is 23.8 µM (inactive); in experiment [7], 17.9 µM (inactive); in [8], 41.7 µM (inactive); in [9], 21.8 µM (inactive); in experiment [10] it was 26 µM (inactive); in experiment [17] it was 15.7 µM (inactive). In addition, the GI50 in experiment [19] is 20 µM (inactive); in [11] it was 21.1 µM (inactive); in experiment [13] it was 18.7 µM (inactive); in [14], 22.7 µM (inactive); in [15], 24.9 µM (inactive); in experiment [16] it was 20.9 µM (inactive).

`Nc1cccc(S(=O)(=O)Nc2nnc(S(N)(=O)=O)s2)c1`: the GI50 in experiment [1], in [18], in experiment [2], in experiment [3], in [4] and in [5] was > 100 µM (inactive) each time. Besides, the GI50 in [6], in [7], in experiment [8], in experiment [10], in experiment [17] and in [19] was > 100 µM (inactive) throughout. Besides, the GI50 in experiment [11], in experiment [13], in experiment [14], in [15] and in experiment [16] was > 100 µM (inactive) in each case.

With `O=C1CC(c2cccc(Cl)c2)Oc2ccccc21` (stereo unspecified), the GI50 in experiment [1] is 6.18 µM (inactive); in experiment [18], 3.65 µM (inactive); in [2] it was 23.7 µM (inactive); in experiment [3] it was 18.3 µM (inactive); in [5] it was 15.3 µM (inactive); in experiment [6] it was 15.7 µM (inactive). Besides, the GI50 in [7] was 22.3 µM (inactive); in experiment [8], 6.4 µM (inactive); in [10], 16.7 µM (inactive); in [17], 20 µM (inactive); in experiment [19], 15.2 µM (inactive); in experiment [11] it was 22.6 µM (inactive). Moreover, the GI50 in experiment [13] was 19.4 µM (inactive); in [14], 15 µM (inactive); in [15], 14.9 µM (inactive); in experiment [16], 18.2 µM (inactive).
